PubChem BioAssay AID248 (DTP/NCI, 2004)
Values joined by “and” are separate entries in the source; they are usually repeats but may differ in a detail not shown here. Equal entries are not always repeated. Toxic doses and inconclusive results are not listed. Cut-off read from the data, not from the text of the source: active = T/C of 150% or more; inactive = T/C below 125%.

Test system: L1210 leukemia ip in BDF1 mice, survival T/C
Experiment: NCI In Vivo Anticancer Drug Screen. Data for tumor model L1210 Leukemia (intraperitoneal) in B6D2F1 (BDF1) mice
Details: endpoint: mean survival time, higher = longer survival
In short: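 Mice bearing the transplanted tumor received compound or vehicle. Survival of the treated group was divided by that of the vehicle-treated control group to give the ratio.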

[1] = dose: 100.0 mg/kg/injection, schedule: Q01DX009 (ip), vehicle: Klucel (hydroxypropylcellulose) (HPC)
[2] = dose: 200.0 mg/kg/injection, schedule: Q01DX009 (ip), vehicle: Klucel (hydroxypropylcellulose) (HPC)
[3] = dose: 400.0 mg/kg/injection, schedule: Q01DX009 (ip), vehicle: Klucel (hydroxypropylcellulose) (HPC)
[4] = dose: 100.0 mg/kg/injection, schedule: Q01DX001 (ip), vehicle: carboxymethylcellulose (CMC)
[5] = dose: 200.0 mg/kg/injection, schedule: Q01DX001 (ip), vehicle: carboxymethylcellulose (CMC)
[6] = dose: 400.0 mg/kg/injection, schedule: Q01DX001 (ip), vehicle: carboxymethylcellulose (CMC)
[7] = dose: 100.0 mg/kg/injection, schedule: Q01DX001 (ip), vehicle: saline
[8] = dose: 200.0 mg/kg/injection, schedule: Q01DX001 (ip), vehicle: saline
[9] = dose: 400.0 mg/kg/injection, schedule: Q01DX001 (ip), vehicle: saline
[10] = dose: 100.0 mg/kg/injection, schedule: Q04DX003 (ip), vehicle: saline

Measured: T/C

S=C1NCC2CCc3c(ccc4ccccc34)N12 (stereo not given)
inactive: dose: 100.0 mg/kg/injection, schedule: Q01DX001 (ip), vehicle: other 97 % of control | dose: 200.0 mg/kg/injection, schedule: Q01DX001 (ip), vehicle: other 90 % of control | dose: 400.0 mg/kg/injection, schedule: Q01DX001 (ip), vehicle: other 95 % of control

O=C(O)COc1ccc(/C=C/c2ccnc3ccccc23)cc1
inactive: [1] 94 % of control | [2] 99 % of control | [3] 86 % of control

N/C(=N\[N+](=O)[O-])N(Cc1ccccc1)/N=C/c1ccccc1
inactive: dose: 87.5 mg/kg/injection, schedule: Q04DX003 (ip), vehicle: Klucel (hydroxypropylcellulose) (HPC) 92 % of control | dose: 175.0 mg/kg/injection, schedule: Q04DX003 (ip), vehicle: Klucel (hydroxypropylcellulose) (HPC) 92 % of control | dose: 350.0 mg/kg/injection, schedule: Q04DX003 (ip), vehicle: Klucel (hydroxypropylcellulose) (HPC) 88 % of control

CC1NC(=O)OC1(C)C(C)(C)C (stereo not given)
inactive: dose: 5.0 mg/kg/injection, schedule: Q04DX003 (ip), vehicle: saline with Tween-80 97 % of control | dose: 10.0 mg/kg/injection, schedule: Q04DX003 (ip), vehicle: saline with Tween-80 100 % of control | dose: 20.0 mg/kg/injection, schedule: Q04DX003 (ip), vehicle: saline with Tween-80 96 % of control

NNC(=O)CNc1ccccc1Br
inactive: dose: 50.0 mg/kg/injection, schedule: Q04DX002 (ip), vehicle: Klucel (hydroxypropylcellulose) (HPC) 106 % of control | dose: 100.0 mg/kg/injection, schedule: Q04DX002 (ip), vehicle: Klucel (hydroxypropylcellulose) (HPC) 105 % of control and 110 % of control

O=C(CCN1CCOCC1)c1csc2ccccc12
inactive: [4] 102 % of control | [5] 102 % of control | [6] 96 % of control

CC(C)(C)OC(=O)N/N=C1\CC2CCC1C2 (stereo not given)
inactive: dose: 100.0 mg/kg/injection, schedule: Q04DX003 (ip), vehicle: acetone 95 % of control

O=c1c(N=Nc2ccc(Br)cc2)c(O)n(-c2ccc(Cl)cc2)c(=S)n1-c1ccccc1
inactive: dose: 37.5 mg/kg/injection, schedule: Q01DX001 (ip), vehicle: Klucel (hydroxypropylcellulose) (HPC) 107 % of control | dose: 75.0 mg/kg/injection, schedule: Q01DX001 (ip), vehicle: Klucel (hydroxypropylcellulose) (HPC) 108 % of control | dose: 150.0 mg/kg/injection, schedule: Q01DX001 (ip), vehicle: Klucel (hydroxypropylcellulose) (HPC) 104 % of control

COc1ccc(OC)c(NC(=O)Nc2ccc(F)cc2)c1
inactive: dose: 12.5 mg/kg/injection, schedule: Q01DX001 (ip), vehicle: carboxymethylcellulose (CMC) 98 % of control | dose: 12.5 mg/kg/injection, schedule: Q01DX009 (ip), vehicle: carboxymethylcellulose (CMC) 92 % of control and 94 % of control | dose: 12.5 mg/kg/injection, schedule: Q04DX002 (ip), vehicle: carboxymethylcellulose (CMC) 110 % of control | dose: 12.5 mg/kg/injection, schedule: Q04DX003 (ip), vehicle: carboxymethylcellulose (CMC) 95 % of control | dose: 25.0 mg/kg/injection, schedule: Q01DX001 (ip), vehicle: carboxymethylcellulose (CMC) 103 % of control | dose: 25.0 mg/kg/injection, schedule: Q01DX009 (ip), vehicle: carboxymethylcellulose (CMC) 95 % of control and 99 % of control | dose: 25.0 mg/kg/injection, schedule: Q04DX002 (ip), vehicle: carboxymethylcellulose (CMC) 98 % of control and 100 % of control | dose: 25.0 mg/kg/injection, schedule: Q04DX003 (ip), vehicle: carboxymethylcellulose (CMC) 91 % of control | dose: 50.0 mg/kg/injection, schedule: Q01DX001 (ip), vehicle: carboxymethylcellulose (CMC) 95 % of control | dose: 50.0 mg/kg/injection, schedule: Q01DX009 (ip), vehicle: carboxymethylcellulose (CMC) 92 % of control and 89 % of control | dose: 50.0 mg/kg/injection, schedule: Q04DX002 (ip), vehicle: carboxymethylcellulose (CMC) 97 % of control | dose: 50.0 mg/kg/injection, schedule: Q04DX003 (ip), vehicle: carboxymethylcellulose (CMC) 93 % of control

COc1ccc2c(c1)c(CC(=O)O)c(Br)n2Cc1ccccc1
inactive: dose: 100.0 mg/kg/injection, schedule: Q01DX001 (ip), vehicle: Klucel (hydroxypropylcellulose) (HPC) 112 % of control | dose: 100.0 mg/kg/injection, schedule: Q04DX003 (ip), vehicle: Klucel (hydroxypropylcellulose) (HPC) 98 % of control | dose: 200.0 mg/kg/injection, schedule: Q01DX001 (ip), vehicle: Klucel (hydroxypropylcellulose) (HPC) 112 % of control | dose: 200.0 mg/kg/injection, schedule: Q04DX003 (ip), vehicle: Klucel (hydroxypropylcellulose) (HPC) 100 % of control | dose: 400.0 mg/kg/injection, schedule: Q01DX001 (ip), vehicle: Klucel (hydroxypropylcellulose) (HPC) 101 % of control | dose: 400.0 mg/kg/injection, schedule: Q04DX003 (ip), vehicle: Klucel (hydroxypropylcellulose) (HPC) 102 % of control

C[CH2][Pb]([CH2]C)([CH2]C)[N]1C(=O)c2c(Cl)c(Cl)c(Cl)c(Cl)c2C1=O
inactive: dose: 12.5 mg/kg/injection, schedule: Q04DX002 (ip), vehicle: Klucel (hydroxypropylcellulose) (HPC) 107 % of control

CCOC(=O)n1cnc2nc(N)nc(Cl)c21
inactive: dose: 50.0 mg/kg/injection, schedule: Q01DX001 (ip), vehicle: saline 103 % of control | [7] 105 % of control | [8] 100 % of control | [9] 122 % of control

Cc1cc(-c2ccc(NS(=O)(=O)c3ccccc3)c(C)c2)ccc1NS(=O)(=O)c1ccccc1
inactive: dose: 25.0 mg/kg/injection, schedule: Q01DX001 (ip), vehicle: saline with Tween-80 95 % of control | dose: 50.0 mg/kg/injection, schedule: Q01DX001 (ip), vehicle: saline with Tween-80 98 % of control | dose: 100.0 mg/kg/injection, schedule: Q01DX001 (ip), vehicle: saline with Tween-80 92 % of control and 104 % of control | dose: 200.0 mg/kg/injection, schedule: Q01DX001 (ip), vehicle: saline with Tween-80 89 % of control

CCOC(=O)Nc1ccc(Cl)c(Cl)c1
inactive: [1] 98 % of control | [2] 101 % of control | [3] 108 % of control

CCCCC(=O)N/N=C/c1cc2c(cc1[N+](=O)[O-])OCO2 (tested in a mixture with another compound)
inactive: [4] 91 % of control | [5] 91 % of control | [6] 91 % of control

Cc1ccc(-n2cnnn2)cc1
inactive: [7] 103 % of control | [8] 104 % of control | [9] 103 % of control

[Cl][Co][Cl].[NH-]CCN1CC1
inactive: [10] 90 % of control

COc1ccc(CNCCNCCNCc2ccc(OC)cc2)cc1
inactive: dose: 100.0 mg/kg/injection, schedule: Q01DX009 (ip), vehicle: saline with Tween-80 107 % of control | [10] 104 % of control | dose: 200.0 mg/kg/injection, schedule: Q01DX009 (ip), vehicle: saline with Tween-80 109 % of control | dose: 200.0 mg/kg/injection, schedule: Q04DX003 (ip), vehicle: saline 102 % of control | dose: 400.0 mg/kg/injection, schedule: Q01DX009 (ip), vehicle: saline with Tween-80 102 % of control | dose: 400.0 mg/kg/injection, schedule: Q04DX003 (ip), vehicle: saline 104 % of control

COc1ccc(OC)c(-c2cc(-c3ccccc3)nc(-c3cccc([N+](=O)[O-])c3)c2)c1
inactive: dose: 100.0 mg/kg/injection, schedule: Q04DX002 (ip), vehicle: gum acacia 102 % of control | dose: 200.0 mg/kg/injection, schedule: Q04DX002 (ip), vehicle: gum acacia 97 % of control | dose: 400.0 mg/kg/injection, schedule: Q04DX002 (ip), vehicle: gum acacia 91 % of control

O=C(O)c1cscc1-c1c2ccccc2cc2ccccc12
inactive: dose: 100.0 mg/kg/injection, schedule: Q04DX003 (ip), vehicle: saline with Tween-80 88 % of control | dose: 200.0 mg/kg/injection, schedule: Q04DX003 (ip), vehicle: saline with Tween-80 91 % of control | dose: 400.0 mg/kg/injection, schedule: Q04DX003 (ip), vehicle: saline with Tween-80 88 % of control
